Source: US20070224128A1, “Drug adherence monitoring system” (priority 2006, published 2007)
In brackets after ≈: the same amount, converted by molar mass. Counter-ions that a name gives are not always drawn. Like-named read-outs stand apart in the source and are kept apart here.

Columns and labels:
[1] = biological target: human recombinant CYP2D6 (Homo sapiens, UniProt P10635)
Protocol: CYP 2D6 inhibition assays were performed by Novascreen (Hanover, Md.). In brief, after 100 μL solution containing the compounds (dextromethorphan or trifluoroethyldextrorphan, concentration ranging from 10^−10 M to 10^−5M) and mixed 50 μL cofactor solution were preincubated in 100 mM potassium phosphate buffer (pH=7.4) for 10 min at 37° C., 50 μL of freshly mixed solution of human recombinant CYP2D6 (1.5 pmole) and AMMC (1.5 μM) was added to each well. The final cofactor concentrations were 1.3 mM NADP^+, 3.3 mM glucose-6-phosphate, 0.4 U/ml glucose-6-phosphate dehydrogenase. Samples were incubated for 45 minutes and the reaction was stopped with 75 μL Tris/acetonitrile stop solution. Quinidine was used as the reference compound. The AMMC metabolite, AMHC, was measured using a fluorescent plate scanner at an excitation wavelength of 390 nm and emission wavelength of 460 nm.

[2] = cited from earlier work
[3] = water at 25° C.; cited from earlier work
[4] = test system: rat; conditions: 4H; cited from earlier work
[5] = test system: rat; conditions: cited from earlier work
[6] = test system: human liver microsomes; test: Human liver microsomes assay: trifluoroacetaldehyde captured from headspace, GC/MS; conditions: 2 mg/mL human liver microsome, 1 mM trifluoroethyldextrorphan, 1.5 hours, determined as DNPH derivative
Protocol: Microsomal incubations were conducted in 1.5 mL polypropylene vials containing 2 mg/mL human liver microsome, 5.2 mM NADP^+, 13.2 mM glucose-6-phosphate, 1.6 U/ml glucose-6-phosphate dehydrogenase, 6.6 mM magnesium chloride and 1 mM trifluoroethyldextrorphan in 100 mM potassium phosphate buffer (pH 7.5). The total volume was 1.5 mL.
LpDNPH S10 cartridges were employed to collect trifluoroacetaldehyde produced from incubation mixture for 1.5 hours through suction generated by a 5 mL syringe. The incubations were performed in triplicate. […]
A Thermo Finnigan Polaris Q Mass Spectrometer (MS) system (consists of a Polaris Q MS, a TRACE GC, and the Xcalibur Data System) was used. […] Negative chemical ionization (NCI) mode was used for identification and quantitation of trifluoroacetaldehyde 2,4-dinitrophenylhydrazone. […]
[^15N4]trifluoroacetaldehyde 2,4-dinitrophenylhydrazone was used as an internal standard for the determination of trifluoroacetaldehyde as its DNPH derivative. Quantitation was performed by selected ion monitoring (SIM) of most intensive fragment ions trifluoroacetaldehyde 2,4-dinitrophenylhydrazone (m/z 182) against the internal standard [^15N4]trifluoroacetaldehyde 2,4-dinitrophenylhydrazone (m/z 185). […]
The fragment ions m/z 182 and 185 were monitored for quantitation. […]

human recombinant CYP2D6, sequence (P10635 whole entry): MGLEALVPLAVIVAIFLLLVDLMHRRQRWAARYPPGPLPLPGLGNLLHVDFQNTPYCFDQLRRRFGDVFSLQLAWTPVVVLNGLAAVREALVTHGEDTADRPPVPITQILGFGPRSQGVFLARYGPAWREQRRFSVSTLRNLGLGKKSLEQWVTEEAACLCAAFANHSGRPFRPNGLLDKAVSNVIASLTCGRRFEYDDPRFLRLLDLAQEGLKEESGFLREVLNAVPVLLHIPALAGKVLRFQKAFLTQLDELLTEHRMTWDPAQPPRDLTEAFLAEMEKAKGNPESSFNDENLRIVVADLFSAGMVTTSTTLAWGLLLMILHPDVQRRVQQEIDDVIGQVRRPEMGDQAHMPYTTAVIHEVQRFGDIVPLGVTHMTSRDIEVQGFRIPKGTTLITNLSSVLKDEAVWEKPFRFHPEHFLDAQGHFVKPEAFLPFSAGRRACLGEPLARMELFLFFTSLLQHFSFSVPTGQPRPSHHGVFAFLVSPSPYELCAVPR

**Q.** For COc1ccc2c(c1)[C@]13CCCC[C@@H]1[C@H](C2)N(C)CC3 [dextromethorphan, Dextromethorphan hydrobromide, reference compound], which “potency to inhibit AMMC metabolism” value [1] is on record?
**A.** similar

**Q.** For OC(C(F)(F)F)(C(F)(F)F)C(F)(F)F [R′3], which VP ([2]; at 20° C.) is on record?
**A.** 268 torr

**Q.** And the Solubility [3]?
**A.** 39,200 mg/L

**Q.** Which VP ([2]; at 20° C.) does the source give for OC(C(F)(F)F)C(F)(F)F [R′4] here?
**A.** 102 torr

**Q.** And the VP ([2]; at 25° C.)?
**A.** 159 torr

**Q.** And the Solubility [3]?
**A.** 7770 mg/L (≈ 46.2 mM)

**Q.** What about the “LC50 Inhalation rat” value [4] of the same compound?
**A.** 1974 ppm/4H

**Q.** What about the “LD50 Oral rat” value [5] of the same compound?
**A.** 1040 to 1500 mg/kg

**Q.** Which results are given for CN1CC[C@@]23CCCC[C@@H]2[C@@H]1Cc1ccc(OCC(F)(F)F)cc13 [trifluoroethyldextrorphan, O-trifluoroethyldextrorphan]?
**A.** potency to inhibit AMMC metabolism ([1]; human recombinant CYP2D6 1.5 pmole, AMMC 1.5 μM, compounds 10^−10 M to 10^−5 M, 45 minutes, FIG. 5): similar; trifluoroacetaldehyde captured from the headspace of the microsomal incubation mixture [6]: 120 ng
